Measurements: patent US20210355547A1, “NON-INVASIVE URINARY BIOMARKERS FOR THE DETECTION OF UROTHELIAL CARCINOMA OF THE BLADDER” (THE JOHNS HOPKINS UNIVERSITY, priority 2018, published 2021)

Key:
[1] = system: spheroid CD24-sh and CD24-Ctrl BFTC 905, BFTC 909, and 5637 cells; test: Apoptosis assay (PE Annexin V / 7-AAD flow cytometry) after CDDP; format: cell-based; settings: 5 μM CDDP, 72 h; spheroid cells with CD24 knockdown
Experimental: (§1) FIG. 2A-2E. The chemoresistant and tumorigenic abilities attenuated by CD24 knockdown in BFTC 905, BFTC 909, and 5637 cell lines. (FIG. 2A) Cell viability after 5 μM cisplatin (CDDP) treatment for 72 h in the spheroid CD24-sh cells, as measured by MTT assay. Cell viability was expressed as the ratio of absorbance values of the spheroid CD24-sh cells related to the spheroid CD24-Ctrl cells considered as 1.0. Data are from three independent experiments. (FIG. 2B) An apoptosis assay of spheroid CD24-sh cells treated with 5 μM CDDP for 72 h. Upper, representative images of early apoptosis (bottom right quadrant) and late apoptosis (top right quadrant); Lower, percentage of apoptotic cells. (FIG. 2C) Western blotting analysis of ABCG2, YAP1, and CD133 in stable CD24-sh and CD24-Ctrl cells. (FIG. 2D) Limiting-dilution xenograft assays in stable spheroid CD24-sh BFTC 909 (upper) and BFTC 905 (lower) cells. Tumor growth was measured after subcutaneous injection of serially diluted spheroid cells (1×10^4, 1×10^3, or 1×10^2 cells per flank) into both flanks of NSG mice (five mice per group). SP, Spheroid. (FIG. 2E) Tumor initiation frequency after the xenotransplantation of spheroid CD24-sh BFTC 909 (upper) and BFTC 905 (lower) cells. […]

[2] = system: spheroid CD24-sh and CD24-Ctrl BFTC 905, BFTC 909, and 5637 cells; test: Cell viability assay (MTT assay) after cisplatin treatment; format: cell-based; settings: 5 μM CDDP, 72 h; spheroid CD24-sh vs spheroid CD24-Ctrl cells
Experimental: as §1, with “Spheroid.” for “Spheroid. (FIG. 2E) Tumor initiation frequency after the xenotransplantation of spheroid CD24-sh BFTC 909 (upper) and BFTC 905 (lower) cells.”
Cell viability assay (MTT assay). Cell viability was measured using the 3-(4, 5-dimethyl thiazol-2-yl)-2, 5-diphenyltetrazolium bromide (MTT) Proliferation Assay Kit (ATCC; Manassas, Va., USA) according to the manufacturer's protocol. […]

N.N.[Cl][Pt][Cl] [cisplatin]
anti-apoptotic ability against CDDP treatment [1]: CD24 knockdown significantly attenuated the anti-apoptotic ability against CDDP treatment | sensitivity of spheroid cells to CDDP treatment (cell viability) [2]: spheroid CD24-sh cells were more sensitive to CDDP treatment than spheroid CD24-Ctrl cells
